Measurements: patent US20050003998A1, “Therapeutic use of selective LXR modulators” (priority 2002, published 2005)
Entries after “also recorded” stand apart in the source; their conditions may differ.

How the values were obtained:
irritant dermatitis = settings: phorbol 12-myristate-13-acetate on ears of CD1 mice; cited from earlier work
phospholipase A2 (PLA2) = settings: cited from earlier work; for PLA2 enzymatic activity / PLA2 mRNA: rat smooth muscle cells
[1] = tested on: rat pheochromocytoma cells; settings: cited from earlier work
[2] = tested on: beta-amyloid induced apoptosis; settings: Alzheimer's disease; cited from earlier work
[3] = tested on: mouse adult neural stem cells derived from the lateral ventricle wall; assay: Intracellular ATP assay on adult mouse neurosphere cultures; format: cell-based; settings: for intracellular ATP levels, and hence cell number (adult mouse NSC proliferation or survival in vitro): 3 days, non-adherent conditions, values normalized to the vehicle (100%)
Experimental: The anterior lateral wall of the lateral ventricle of 5-6 week old mice was enzymatically dissociated in 0.8mg/ml hyaluronidase and 0.5 mg/ml trypsin in DMEM containing 4.5 mg/ml glucose and 80units/ml DNase at 37° C. for 20 min. The cells were gently triturated and mixed with three volumes of Neurosphere medium (DMEM/F12, B27 supplement, 12.5 mM HEPES pH7.4) containing 20 ng/ml EGF (unless otherwise stated), 100units/ml penicillin and 100 μg/ml streptomycin. After passing through a 70 μm strainer, the cells were pelleted at 160×g for 5 min. The supernatant was subsequently removed and the cells resuspended in Neurosphere medium supplemented as above, plated out in culture dishes and incubated at 37° C. Neurospheres were ready to be split approximately 7 days after plating.
To split neurosphere cultures, neurospheres were collected by centrifugation at 160×g for 5 min. The neurospheres were resuspended in 0.5 ml Trypsin/EDTA in HBSS (1×), incubated at 37° C. for 2 min and triturated gently to aid dissociation. Following a further 3 min incubation at 37° C. and trituration, 3 volumes of ice cold NSPH-media-EGF were added to stop further trypsin activity. The cells were pelleted at 220×g for 4 min, resuspended in fresh Neurosphere medium supplemented with 20 ng/ml EGF and 1 nM bFGF plated out and incubated at 37° C.
Mouse neurospheres, cultured as described above, from passage 2, were seeded in DMEM/F12 supplemented with B27 into a 96-well plate as single cells (10000 cells/well) to the substances to be measured were added at the concentrations indicated. After 3 days incubation, intracellular ATP was measured using the ATP-SL kit from BioThema, Sweden, according to the manufacturer's instructions. The LXR agonists: 5-Cholesten-24(s), 25-epoxy-3b-ol were purchased from Steraloids (no C6640-000): TO-901317 were purchased from Sigma-Aldrich (no T2320). The RXR agonist cis-4,7,10,13,16,19-Docosahexaenoic acid (DHA) were purchased from Sigma-Aldrich (no 43938). […]

cells in the LVW [4] = assay: Oral administration of TO-901317 in chow, BrdU incorporation in the lateral ventricle wall; format: in vivo, C57BL/6J male mice; settings: 4.3 and 43 mg/kg/day, mouse
Experimental: (§1) C57BL/6J male mice were housed under controlled temperature and humidity and had free access to water and chow. 40 mice were divided into 5 groups (n=8). Group 1 received chow mixed with 0.025% T0901317 (Sigma-Aldrich) ad libitum for 10 days (dose previously show to be effective for brain activity of the compound). On day 7 and 8 the animals received a single injection of 5-bromodeoxyuridine, 100 mg/kg i.p., respectively and were sacrificed on day 10 by means of cervical dislocation.
Group 2 received identical treatment except that the chow in this case contained 0.0025% T0901317. […] No correlation between weight gain, food intake or BrdU incorporation could be detected. […]
Brains were cut into 14-μm coronal sections using a cryostat-microtome. […] After 1 hour of washing, the BrdU-antibody complex was detected using 0.05% diaminobenzidine with 0.01% H2O2, and counterstained with Hematoxylin. […]
(§2) For all BrdU labeling experiments, three to six sections per animal were analyzed. BrdU-positive cells were counted along 2×250 micrometer strips of the lateral ventricle wall (including the ependymal cell layer and subventricular zone). […] The numbers of BrdU-positive cells are calculated per area (mm^2). The mean ± SEM were calculated. Differences between means were determined by one-way ANOVA.

cells in the LVW [5] = assay: Intracerebroventricular infusion of TO-901317, BrdU incorporation in the lateral ventricle wall; format: in vivo, male Wistar rats; settings: icv infusion 0.6 nmol/animal/day, 14 days, rat; calculated day concentration 0.2 μM
Experimental: 10 week old male Wistar rats maintained on a 12hr light/dark cycle with food and water ad libidum, were infused in the right lateral ventricle with TO-901317 (Sigma-Aldrich), using an Alzet pump (2002), 14 days at a daily dose of 0.6 nmol/animal/day (infused at a rate of 0.5 μl/hr; 50 μM solution). Bromodeoxyuridine (BrdU) (50 mg/ml) was also included in the infusion vehicle (0.9% saline containing 1 mg/ml mouse serum albumin (Sigma)) to enable measurement of proliferation by quantitation of BrdU incorporation in the DNA. Animals were sacrificed at day 14, perfused with PBS and the brains removed and frozen at −70° C. prior to sectioning for immumohistochemical analysis.
Brains were cut into 14-μm coronal sections using a cryostat-microtome. The sections were thawed onto pretreated slides and fixed in 4% (wt/vol) paraformaldehyde/PBS for 10 min. […] After 1 hour of washing, the BrdU-antibody complex was detected using 0.05% diaminobenzidine with 0.01% H2O2, and counterstained with Hematoxylin. […]
as §2

[6] = Weight gain and food intake during oral administration; format: in vivo, C57BL/6J male mice; settings: chow with 0.025% or 0.0025% compound, mouse
Experimental: as §1
Group 2 received identical treatment except that the chow in this case contained 0.0025% T0901317. Group 3 and 4 received identical treatments as groups 1 and 2, respectively, with the exception that these animals received 5-bromodeoxyuridine injections on day 1 and 2 after the initiation of the experiment and were sacrificed on day 4. Group 5 served as control and received chow without any T0901317 but identical to groups 1-4 received two daily injections of 5-bromodeoxyuridine 100 mg/kg i.p. and was sacrificed two days later. The mean daily intake was 4.25±0.13 (S.E.M.) g chow, and the mean weight of the animals 24.8±0.11 (S.E.M.) g during the cause of the experiment resulting in an average dose of 43 mg/kg/day for groups 1 and 3 (“High”), and an average dose of 4.3 mg/kg/day for groups 2 and 4 (“Low”). […] No correlation between weight gain, food intake or BrdU incorporation could be detected. […]

Row | Structure (SMILES) | irritant dermatitis (irritant dermatitis) | PLA2 enzymatic activity (phospholipase A2 (PLA2)) | PLA2 mRNA (phospholipase A2 (PLA2)) | neuronal differentiation measured as neurite outgrowth [1] | intracellular ATP levels, and hence cell number (adult mouse NSC proliferation or survival in vitro) [3] | also measured
1 | CC(C)CC[C@@H](O)[C@@H](C)[C@H]1CC[C@H]2[C@@H]3CC=C4C[C@@H](O)CC[C@]4(C)[C@H]3CC[C@]12C [22(R)-hydroxycholesterol] | able to reduce irritant dermatitis | increased enzymatic activity | accumulation of PLA2 mRNA | induces neuronal differentiation | – | PLA2 promoter activity (phospholipase A2 (PLA2); transient transfection, in combination with 9-cis-retinoic acid): synergistically activated; beta-amyloid induced apoptosis [2]: prevention of beta-amyloid induced apoptosis
2 | CCCCCCCCCCCCCCOc1ccc(C(=O)O)o1 [TOFA, 5-tetradecyloxy-2-furancarboxylic acid] | – | – | – | induces neuronal differentiation | – | –
3 | O=C(O)Cc1cccc(OCCCN(Cc2cccc(C(F)(F)F)c2Cl)CC(c2ccccc2)c2ccccc2)c1 [GW3965] | able to reduce irritant dermatitis | – | – | – | – | –
4 | O=S(=O)(c1ccccc1)N(CC(F)(F)F)c1ccc(C(O)(C(F)(F)F)C(F)(F)F)cc1 [TO-901317] | – | – | – | – | mediates adult mouse NSC proliferation or survival in vitro | concentration-response relationship observed in vitro with cultured mouse NSC ([3]; Example 2, effective concentrations): 3 to 5 µM; incorporation of BrdU of cells in the LVW (cells in the LVW [4]): significantly decreased; also recorded: clearly effective; incorporation of BrdU in the LVW (cells in the LVW [5]): did not significantly change; also recorded: ineffective; weight gain or food intake [6]: No difference between groups
5 | C[C@H](CC[C@@H]1OC1(C)C)[C@H]1CC[C@H]2[C@@H]3CC=C4C[C@@H](O)CC[C@]4(C)[C@H]3CC[C@]12C [5-Cholesten-24(s), 25-epoxy-3b-ol] | – | – | – | – | mediates adult mouse NSC proliferation or survival in vitro | –
6 | C[C@H](CCCC(C)(C)O)[C@H]1CC[C@H]2[C@@H]3CC=C4C[C@@H](O)CC[C@]4(C)[C@H]3CC[C@]12C [25-hydroxycholesterol] | able to reduce irritant dermatitis | increased enzymatic activity | accumulation of PLA2 mRNA | – | – | –
